Consider 23 compounds from patent US9079901B2, “Fused heterocyclic compounds as ion channel modulators” (Gilead Sciences, Inc., priority 2010, dated 2015).

In this assay the target is wild-type human cardiac sodium channel, hNav1.5 (late sodium current) in HEK293 cells (Homo sapiens, UniProt Q14524). Description: Late INa screening assay (automated whole-cell patch clamp, PatchXpress). The assay is classed as cell-based. The note with it: HEK293, compound at 1 μM; late INa generated with 10 μM Tefluthrin (or 50 nM ATX II); HEK293 hNav1.5; read-out: Late INa 1 μM (percent block of late INa). The method in brief: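 hNav1.5-expressing HEK293 cells (no β subunits) were recorded by automated whole-cell patch clamp at 24–27 °C with CsF-based internal solution. Late current was induced by 10 μM tefluthrin (or 50 nM ATX II) and evoked by 250 ms steps from −120 to −20 mV at 0.1 Hz. Compounds, typically 10 μM, were applied in three additions over 7–8 min; mean current at 225–250 ms, normalised to 0Na baseline, gave percent block.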
wild-type human cardiac sodium channel, hNav1.5 (late sodium current) in HEK293 cells, sequence (Q14524 whole entry): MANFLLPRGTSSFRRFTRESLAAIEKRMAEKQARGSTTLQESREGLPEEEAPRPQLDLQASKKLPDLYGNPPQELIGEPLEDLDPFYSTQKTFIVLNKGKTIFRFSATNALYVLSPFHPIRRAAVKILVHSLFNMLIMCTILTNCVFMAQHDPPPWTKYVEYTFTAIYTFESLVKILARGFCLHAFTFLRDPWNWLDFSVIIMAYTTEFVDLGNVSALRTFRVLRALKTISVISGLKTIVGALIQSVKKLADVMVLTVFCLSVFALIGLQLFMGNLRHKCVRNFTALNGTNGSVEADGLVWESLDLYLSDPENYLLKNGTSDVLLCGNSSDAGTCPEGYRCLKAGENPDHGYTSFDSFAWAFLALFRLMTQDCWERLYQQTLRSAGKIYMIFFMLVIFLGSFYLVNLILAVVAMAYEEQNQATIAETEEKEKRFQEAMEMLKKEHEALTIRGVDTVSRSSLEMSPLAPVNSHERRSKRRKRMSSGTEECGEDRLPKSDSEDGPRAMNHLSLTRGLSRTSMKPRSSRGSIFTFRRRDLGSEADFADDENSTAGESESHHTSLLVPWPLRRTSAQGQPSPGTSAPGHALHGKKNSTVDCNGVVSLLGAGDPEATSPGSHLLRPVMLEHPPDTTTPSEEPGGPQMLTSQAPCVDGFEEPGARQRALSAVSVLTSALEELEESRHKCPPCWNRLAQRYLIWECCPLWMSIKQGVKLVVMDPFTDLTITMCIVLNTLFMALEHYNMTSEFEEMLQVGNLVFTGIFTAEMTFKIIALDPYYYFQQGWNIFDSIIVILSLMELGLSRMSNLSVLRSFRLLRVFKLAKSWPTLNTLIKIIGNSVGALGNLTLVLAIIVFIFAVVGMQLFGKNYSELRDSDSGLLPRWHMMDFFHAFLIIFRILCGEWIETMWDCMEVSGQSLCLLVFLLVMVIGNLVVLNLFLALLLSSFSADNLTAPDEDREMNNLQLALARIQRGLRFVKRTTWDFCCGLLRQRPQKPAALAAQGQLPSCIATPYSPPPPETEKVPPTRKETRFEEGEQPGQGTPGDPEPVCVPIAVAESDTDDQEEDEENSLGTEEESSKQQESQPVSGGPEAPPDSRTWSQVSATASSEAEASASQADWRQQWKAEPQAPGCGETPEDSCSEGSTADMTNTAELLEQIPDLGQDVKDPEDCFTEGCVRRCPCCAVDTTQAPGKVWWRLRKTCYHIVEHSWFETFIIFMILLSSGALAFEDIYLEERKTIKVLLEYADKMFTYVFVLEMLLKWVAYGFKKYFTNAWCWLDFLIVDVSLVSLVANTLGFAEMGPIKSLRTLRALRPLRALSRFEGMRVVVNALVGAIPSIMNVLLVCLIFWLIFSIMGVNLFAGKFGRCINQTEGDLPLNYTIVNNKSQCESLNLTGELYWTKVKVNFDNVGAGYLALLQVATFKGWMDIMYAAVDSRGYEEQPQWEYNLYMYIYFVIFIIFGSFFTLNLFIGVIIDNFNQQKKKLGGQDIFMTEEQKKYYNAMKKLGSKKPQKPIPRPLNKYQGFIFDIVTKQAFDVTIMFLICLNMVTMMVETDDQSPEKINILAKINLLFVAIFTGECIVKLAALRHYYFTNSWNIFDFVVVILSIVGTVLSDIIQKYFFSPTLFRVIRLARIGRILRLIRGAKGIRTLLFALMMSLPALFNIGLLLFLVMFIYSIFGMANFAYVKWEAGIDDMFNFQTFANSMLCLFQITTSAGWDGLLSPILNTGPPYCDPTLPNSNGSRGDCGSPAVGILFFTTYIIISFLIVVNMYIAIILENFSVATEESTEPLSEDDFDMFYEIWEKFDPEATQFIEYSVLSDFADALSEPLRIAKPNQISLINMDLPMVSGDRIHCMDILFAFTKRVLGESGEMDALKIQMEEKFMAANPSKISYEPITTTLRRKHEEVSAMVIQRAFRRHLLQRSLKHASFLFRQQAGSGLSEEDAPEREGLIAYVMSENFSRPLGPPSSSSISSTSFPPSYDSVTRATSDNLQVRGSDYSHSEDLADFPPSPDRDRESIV
(In general: Patch clamp records ionic current or voltage across a cell membrane.)

Turning to `O=c1n(CCOc2ncc(Cl)cn2)nc2ccc(-c3ccc(OC(F)(F)F)cc3)cn12` [compound 92, 2-(2-(5-chloropyrimidin-2-yloxy)ethyl)-6-(4-(trifluoromethoxy)phenyl)-[1,2,4]triazolo[4,3-a]pyridin-3(2H)-one], the inhibition at 1 µM came out at 35.3%.
Under `Cc1noc(Cn2nc3ccc(-c4ccc(Oc5ccc(F)cc5)cc4)cn3c2=O)n1` [compound 93, 6-(4-(4-fluorophenoxy)phenyl)-2-((3-methyl-1,2,4-oxadiazol-5-yl)methyl)-[1,2,4]triazolo[4,3-a]pyridin-3(2H)-one] stands 71.3%.
Under `CC(=O)OCc1nc(Cn2nc3ccc(-c4ccc(OC(F)(F)F)cc4)cn3c2=O)no1` [compound 94, (3-((3-oxo-6-(4-(trifluoromethoxy)phenyl)-[1,2,4]triazolo[4,3-a]pyridin-2(3H)-yl)methyl)-1,2,4-oxadiazol-5-yl)methyl acetate] stands 28.2%; under `CO[C@H](COc1ccccc1Cl)Cn1nc2ccc(-c3ccc(OC(F)(F)F)cc3)cn2c1=O` [compound 95, (S)-2-(3-(2-chlorophenoxy)-2-methoxypropyl)-6-(4-(trifluoromethoxy)phenyl)-[1,2,4]triazolo[4,3-a]pyridin-3(2H)-one], 42.5%.
As for `CO[C@@H](COc1ccccc1Cl)Cn1nc2ccc(-c3ccc(OC(F)(F)F)cc3)cn2c1=O` [compound 96, (R)-2-(3-(2-chlorophenoxy)-2-methoxypropyl)-6-(4-(trifluoromethoxy)phenyl)-[1,2,4]triazolo[4,3-a]pyridin-3(2H)-one], the figure is 46.1%.
With `Cn1c(CCn2nc3ccc(-c4ccc(OC(F)(F)F)cc4)cn3c2=O)nc2ccccc21` [compound 97, 2-(2-(1-methyl-1H-benzo[d]imidazol-2-yl)ethyl)-6-(4-(trifluoromethoxy)phenyl)-[1,2,4]triazolo[4,3-a]pyridin-3(2H)-one], the inhibition at 1 µM was determined as 16%.
Turning to `COc1cc(F)ccc1OCC(O)Cn1nc2ccc(-c3ccc(OC(F)(F)F)cc3)cn2c1=O` (centres unmarked) [compound 98, 2-(3-(4-fluoro-2-methoxyphenoxy)-2-hydroxypropyl)-6-(4-(trifluoromethoxy)phenyl)-[1,2,4]triazolo[4,3-a]pyridin-3(2H)-one], the inhibition at 1 µM turned out to be 23.2%.
Turning to `CCOc1ccccc1OCC(O)Cn1nc2ccc(-c3ccc(OC(F)(F)F)cc3)cn2c1=O` (centres unmarked) [compound 99, 2-(3-(2-ethoxyphenoxy)-2-hydroxypropyl)-6-(4-(trifluoromethoxy)phenyl)-[1,2,4]triazolo[4,3-a]pyridin-3(2H)-one], the inhibition at 1 µM amounted to 36.5%.
As for `O=c1n(CC(O)COc2ccccc2-c2ccccc2)nc2ccc(-c3ccc(OC(F)(F)F)cc3)cn12` (centres unmarked) [compound 100, 2-(3-(biphenyl-2-yloxy)-2-hydroxypropyl)-6-(4-(trifluoromethoxy)phenyl)-[1,2,4]triazolo[4,3-a]pyridin-3(2H)-one], the figure is 18%; as for `N#Cc1ccccc1OCC(O)Cn1nc2ccc(-c3ccc(OC(F)(F)F)cc3)cn2c1=O` (centres unmarked) [compound 101, 2-(2-hydroxy-3-(3-oxo-6-(4-(trifluoromethoxy)phenyl)-[1,2,4]triazolo[4,3-a]pyridin-2(3H)-yl)propoxy)benzonitrile], 11.7%; as for `CC(Cn1nc2ccc(-c3ccc(OC(F)(F)F)cc3)cn2c1=O)c1ccccn1` (centres unmarked) [compound 102, 2-(2-(pyridin-2-yl)propyl)-6-(4-(trifluoromethoxy)phenyl)-[1,2,4]triazolo[4,3-a]pyridin-3(2H)-one], 36.2%.
Consider `COc1cccc(CCn2nc3ccc(-c4ccc(OC(F)(F)F)cc4)cn3c2=O)n1` [compound 103, 2-(2-(6-methoxypyridin-2-yl)ethyl)-6-(4-(trifluoromethoxy)phenyl)-[1,2,4]triazolo[4,3-a]pyridin-3(2H)-one], for which the inhibition at 1 µM was found to be 49.7%.
Turning to `COc1cc(F)ccc1OCC(Cn1nc2ccc(-c3ccc(OC(F)(F)F)cc3)cn2c1=O)OC` (centres unmarked) [compound 104, 2-(3-(4-fluoro-2-methoxyphenoxy)-2-methoxypropyl)-6-(4-(trifluoromethoxy)phenyl)-[1,2,4]triazolo[4,3-a]pyridin-3(2H)-one], the inhibition at 1 µM came out at 41.5%.
As for `CCOC(COc1ccc(F)cc1OC)Cn1nc2ccc(-c3ccc(OC(F)(F)F)cc3)cn2c1=O` (centres unmarked) [compound 105, 2-(2-ethoxy-3-(4-fluoro-2-methoxyphenoxy)propyl)-6-(4-(trifluoromethoxy)phenyl)-[1,2,4]triazolo[4,3-a]pyridin-3(2H)-one], the figure is 45%.
As for `CCOc1ccnc(OCCn2nc3ccc(-c4ccc(OC(F)(F)F)cc4)cn3c2=O)n1` [compound 106, 2-(2-(4-ethoxypyrimidin-2-yloxy)ethyl)-6-(4-(trifluoromethoxy)phenyl)-[1,2,4]triazolo[4,3-a]pyridin-3(2H)-one], the figure is 47.2%; as for `Cc1nc2ccc(OCC(O)Cn3nc4ccc(-c5ccc(OC(F)(F)F)cc5)cn4c3=O)cc2s1` (centres unmarked) [compound 107, 2-(2-hydroxy-3-(2-methylbenzo[d]thiazol-6-yloxy)propyl)-6-(4-(trifluoromethoxy)phenyl)-[1,2,4]triazolo[4,3-a]pyridin-3(2H)-one], 22.4%; as for `CC(C)Oc1ccccc1OCC(O)Cn1nc2ccc(-c3ccc(OC(F)(F)F)cc3)cn2c1=O` (centres unmarked) [compound 108, 2-(2-hydroxy-3-(2-isopropoxyphenoxy)propyl)-6-(4-(trifluoromethoxy)phenyl)-[1,2,4]triazolo[4,3-a]pyridin-3(2H)-one], 41.5%.
With `O=c1n(C2COCC2Oc2ncccn2)nc2ccc(-c3ccc(OC(F)(F)F)cc3)cn12` (centres unmarked) [compound 109, 2-(4-(pyrimidin-2-yloxy)tetrahydrofuran-3-yl)-6-(4-(trifluoromethoxy)phenyl)-[1,2,4]triazolo[4,3-a]pyridin-3(2H)-one], the inhibition at 1 µM turned out to be 12.9%.
In the case of `Cc1noc(Cn2nc3ccc(-c4ccc([Si](C)(C)C)cc4)cn3c2=O)n1` [compound 110, 2-((3-methyl-1,2,4-oxadiazol-5-yl)methyl)-6-(4-(trimethylsilyl)phenyl)-[1,2,4]triazolo[4,3-a]pyridin-3(2H)-one], the inhibition at 1 µM was 44.3%.
Under `O=c1n(CCc2ncccn2)nc2ccc(-c3ccc(OC(F)(F)F)cc3)cn12` [compound 111, 2-(2-(pyrimidin-2-yl)ethyl)-6-(4-(trifluoromethoxy)phenyl)-[1,2,4]triazolo[4,3-a]pyridin-3(2H)-one] stands 18.6%; under `O=C1C(Oc2ccccc2)CCN1CCn1nc2ccc(-c3ccc(OC(F)(F)F)cc3)cn2c1=O` (centres unmarked) [compound 112, 2-(2-(2-oxo-3-phenoxypyrrolidin-1-yl)ethyl)-6-(4-(trifluoromethoxy)phenyl)-[1,2,4]triazolo[4,3-a]pyridin-3(2H)-one], 11.1%.
Under `O=c1n(CCc2ccncn2)nc2ccc(-c3ccc(OC(F)(F)F)cc3)cn12` [compound 113, 2-(2-(pyrimidin-4-yl)ethyl)-6-(4-(trifluoromethoxy)phenyl)-[1,2,4]triazolo[4,3-a]pyridin-3(2H)-one] stands 17.8%; under `O=c1n(CCc2cnccn2)nc2ccc(-c3ccc(OC(F)(F)F)cc3)cn12` [compound 114, 2-(2-(pyrazin-2-yl)ethyl)-6-(4-(trifluoromethoxy)phenyl)-[1,2,4]triazolo[4,3-a]pyridin-3(2H)-one], 14.4%.
